Assay results reported in US8815590B2, “Composition and method for differentiation of human embryonic stem cells” (Stem Cells for Safer Medicines Limited, priority 2009, dated 2014).

Legend:
Human ESCs [SHEF3] [1] = assay: Differentiation towards definitive endoderm: immunostaining and RT-PCR of endodermal markers; type: cell-based; settings: 2 μM
Experimental: Human ESCs [SHEF3] were maintained feeder-free on Matrigel® in chemically defined mTeSR1® media and treated with 2 μM 1M for the days indicated. (A) Expression of the endodermal markers FoxA2, Sox17 and HNF4α were analysed by immunofluorescence. Treatment with compound 1M led to expression of all markers after 7 days treatment. Scale bar represents 50 μm. (B) ESCs were harvested on day 7 following treatment with 1M for the indicated days. RNA was extracted and RT-PCR analyses performed using primers selective for the genes indicated. […] (C) BIO induces differentiation towards the DE. SHEF3 ESCs were treated with 2 μM BIO for the times indicated and immunostained with antibodies towards the endodermal markers FOXA2, SOX17 and HNF4α. (D) Compound 1L also induces differentiation towards the DE. SHEF1 ESCs were treated with 2 μM 1L for the times indicated and immunostained with antibodies towards the endodermal markers FOXA2 and HNF4α.
ESCs were cultured feeder-free on Matrigel®-coated plates in mTeSR1® media, supplemented with 2 μM compound 1M for 7 days with the media being refreshed every-other day. Definitive endoderm cultures were passaged with collagenase (1 mg/ml) and plated at a ratio of 1:10 on Matrigel® in KO DMEM supplemented with glutamine, penicillin/streptomycin, NEAA, 2% (v/v) KOSR, 10 ng/ml HGF (Peprotech) and 10 ng/ml FGF4 and cultured for a further 7 days with the media being refreshed every-other day. To allow for maturation of the HLCs, 10 ng/ml oncostatin M (Peprotech) and 10^−7 dexamethasone (SIGMA) were added to the above media and the cells were cultured for an additional 7 days with fresh media every-other day.
Total RNA was isolated and purified using TRIzol Reagent (Invitrogen), following the manufacturer's instructions. All RNA samples were treated with DNase I (Ambion) before cDNA synthesis to eliminate any contaminating genomic DNA. RNA (1 μg) was reverse transcribed into cDNA using Oligo(dT)15 (Promega) and SuperScript II (Invitrogen). Gene-specific PCR was carried out using primers and annealing temperatures outlined in Table 2.
ESCs were cultured on Matrigel®-coated lummox (Greiner Bio One) trays and fixed with 4% paraformaldehyde (PFA) for 20 minutes at room temperature. Cells were permeabilised in PBST (with 0.1% Triton X-100) and blocked in 10% blocking reagent (Roche) before incubating with primary antibodies in 2% blocking reagent overnight at 4° C. After washing in PBS, cells were incubated with FITC-conjugated secondary antibodies (Vector Labs) for 3 hours at room temperature. After further washing, the cells were stained with 4,6-diamidino-2-phenylindole (DAPI) (SIGMA), washed again and mounted in MOWIOL. […]

Human ESCs [SHEF3] [2] = assay: Flow cytometry of pluripotency surface markers Tra-1-60 and SSEA4 in treated human ESCs; type: cell-based
Experimental: (A) Images show typical colonies formed following the indicated treatments. The scale bars represent 1 mm. (B) Histogram plots of ESCs analysed by flow cytometry following immunostaining with antibodies against the pluripotency markers Tra-1-60 or SSEA4. (C) RNA was extracted from the cells and RT-PCR analyses performed using primers specific to the pluripotency genes OCT4 and NANOG and to the house-keeping gene β-ACTIN. (D) Western blot analysis was performed on protein extracted from the cells and immunoblotted with antibodies specific to Oct4. Blots were stripped and reprobed with anti-Gapdh antibodies to assess equal loading. […] SHEF3 cells were treated with the indicated concentration of 1O for 7 days. Images show typical colony morphology. (F) Histogram plots of ESCs analysed by flow cytometry following staining with Tra-1-60 and SSEA4 antibodies. Analysis of percent positive cells and mean fluorescent intensity are indicated on the plots. (G) RT PCR analysis for the expression of OCT4 and NANOG. Bands for each of the genes were from the same gel with intervening samples removed. (H) Western blot analysis of OCT4 protein expression. Proteins bands were from the same immunoblot with intervening samples removed.
SHEF1 and SHEF3 human ESCs were obtained from the UKSCB and cultured as outlined in their protocols. Briefly, ESCs were maintained on mitomycin C-inactivated mouse embryonic fibroblast (MEF) feeder layers in KnockOut Dulbecco's modified Eagle's medium (KO DMEM) (Invitrogen) supplemented with 20% (vol/vol) KO serum replacement (KOSR; Invitrogen), 1 mM non-essential amino acids (NEAA; Invitrogen), 1 mM glutamine (Invitrogen), 0.1 mM 2-mercaptoethanol (BioRad), penicillin/streptomycin, and 4 ng/ml recombinant human FGF2 (Peprotech). Cultures were passage using 1 mg/ml collagenase at a ratio of 1:8 to 1:12 every 7 days. Cultures were transferred to a feeder-free, chemically defined culture system on ESC-qualified Matrigel® (BD) coated plates in mTeSR1® (Stem Cell Technologies) media according to Stem Cell Technologies' protocol.
ESCs were trypsinised (0.05% Trypsin-EDTA) for 10 minutes at 37° C. and resuspended in PBS containing 2% (v/v) FBS (FBS/PBS). […] Cells were washed and stained with secondary fluorescein isothiocyanate (FITC)-conjugated antibodies (SIGMA) for a further 30 minutes, if required. Flow cytometry was performed using a FACSCanto cytometer (Becton Dickenson) and the data were analysed with FACSDiva software. Dead cells were excluded for analyses based on forward and side scatter parameters.

[3] = MEF culture, concentration 0.5, 7 days
[4] = MEF culture, concentration 2, 7 days
[5] = mTeSR1, concentration 0.5, 7 days
[6] = mTeSR1, concentration 2, 7 days

Compound: O=C1NC(=O)C2=C1c1cn(c3ccccc13)CCOCCOCCOCCOCCn1cc2c2ccccc21 [1M]
- Differentiation towards the DE (immunostaining FOXA2, SOX17, HNF4α) (Human ESCs [SHEF3] [1]; feeder-free on Matrigel in mTeSR1, up to 7 days): differentiating towards the DE in a time dependent manner
- Expression of HNF4α and AFP (early hepatic lineage) (Human ESCs [SHEF3] [1]; following 7 days treatment): expression of HNF4α and α-fetoprotein (AFP) was observed
- Expression of pluripotency markers Tra-1-60 and SSEA4 by flow cytometry (in words) (Human ESCs [SHEF3] [2]; 7 days treatment): dramatic decrease in expression
- Tra1-60 % pos (Human ESCs [SHEF3] [2]; MEF culture, concentration 0.5 (unit not given), 7 days): 82.1%
- SSEA4 % pos (Human ESCs [SHEF3] [2]; [3]): 90.4%
- SSEA4 mean (mean fluorescence intensity) (Human ESCs [SHEF3] [2]; [3]): 5805
- Tra1-60 mean (mean fluorescence intensity) (Human ESCs [SHEF3] [2]; [3]): 9403
- Tra1-60 % pos (Human ESCs [SHEF3] [2]; MEF culture, concentration 2 (unit not given), 7 days): 18.9%
- SSEA4 % pos (Human ESCs [SHEF3] [2]; [4]): 72.9%
- SSEA4 mean (mean fluorescence intensity) (Human ESCs [SHEF3] [2]; [4]): 1656
- Tra1-60 mean (mean fluorescence intensity) (Human ESCs [SHEF3] [2]; [4]): 1092
- Tra1-60 % pos (Human ESCs [SHEF3] [2]; mTeSR1 (feeder-free, Matrigel), concentration 0.5, 7 days): 85.9%
- Tra1-60 % pos (Human ESCs [SHEF3] [2]; mTeSR1 (feeder-free, Matrigel), concentration 2, 7 days): 25.6%
- SSEA4 % pos (Human ESCs [SHEF3] [2]; [5]): 88.6%
- SSEA4 mean (mean fluorescence intensity) (Human ESCs [SHEF3] [2]; [5]): 7578
- Tra1-60 mean (mean fluorescence intensity) (Human ESCs [SHEF3] [2]; [5]): 11955
- SSEA4 % pos (Human ESCs [SHEF3] [2]; [6]): 52.9%
- SSEA4 mean (mean fluorescence intensity) (Human ESCs [SHEF3] [2]; [6]): 465
- Tra1-60 mean (mean fluorescence intensity) (Human ESCs [SHEF3] [2]; [6]): 312
